Test results from PMC4074244 (Nature, 2014).

Columns and labels:
[1] = molecular target: T1, mitochondrial glycerophosphate dehydrogenase (mGPD) (Homo sapiens, UniProt P43304); assay: DCIP reduction assay; type: biochemical
T1 sequence (P43304 43-727): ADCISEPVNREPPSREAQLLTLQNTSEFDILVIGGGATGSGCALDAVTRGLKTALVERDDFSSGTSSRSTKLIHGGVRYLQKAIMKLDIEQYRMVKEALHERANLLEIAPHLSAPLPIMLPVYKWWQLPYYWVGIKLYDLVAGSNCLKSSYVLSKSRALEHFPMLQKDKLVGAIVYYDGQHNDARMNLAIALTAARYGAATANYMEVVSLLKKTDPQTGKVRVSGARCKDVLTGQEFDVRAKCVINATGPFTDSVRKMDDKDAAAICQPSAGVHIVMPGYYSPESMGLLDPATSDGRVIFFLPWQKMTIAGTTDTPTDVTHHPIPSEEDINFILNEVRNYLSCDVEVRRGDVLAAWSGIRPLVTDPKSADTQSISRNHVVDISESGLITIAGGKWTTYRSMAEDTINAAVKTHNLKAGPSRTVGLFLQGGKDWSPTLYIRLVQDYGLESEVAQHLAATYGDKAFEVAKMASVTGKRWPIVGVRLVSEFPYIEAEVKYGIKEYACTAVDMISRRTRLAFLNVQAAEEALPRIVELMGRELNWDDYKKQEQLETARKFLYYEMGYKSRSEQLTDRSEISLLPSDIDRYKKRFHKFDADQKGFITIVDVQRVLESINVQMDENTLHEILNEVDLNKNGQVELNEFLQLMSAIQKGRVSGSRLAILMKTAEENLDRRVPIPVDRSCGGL

[2] = molecular target: T2, mitochondrial glycerophosphate dehydrogenase (mGPD) (Rattus norvegicus, UniProt P35571); assay: DCIP reduction assay; type: biochemical
T2 sequence (P35571 43-727): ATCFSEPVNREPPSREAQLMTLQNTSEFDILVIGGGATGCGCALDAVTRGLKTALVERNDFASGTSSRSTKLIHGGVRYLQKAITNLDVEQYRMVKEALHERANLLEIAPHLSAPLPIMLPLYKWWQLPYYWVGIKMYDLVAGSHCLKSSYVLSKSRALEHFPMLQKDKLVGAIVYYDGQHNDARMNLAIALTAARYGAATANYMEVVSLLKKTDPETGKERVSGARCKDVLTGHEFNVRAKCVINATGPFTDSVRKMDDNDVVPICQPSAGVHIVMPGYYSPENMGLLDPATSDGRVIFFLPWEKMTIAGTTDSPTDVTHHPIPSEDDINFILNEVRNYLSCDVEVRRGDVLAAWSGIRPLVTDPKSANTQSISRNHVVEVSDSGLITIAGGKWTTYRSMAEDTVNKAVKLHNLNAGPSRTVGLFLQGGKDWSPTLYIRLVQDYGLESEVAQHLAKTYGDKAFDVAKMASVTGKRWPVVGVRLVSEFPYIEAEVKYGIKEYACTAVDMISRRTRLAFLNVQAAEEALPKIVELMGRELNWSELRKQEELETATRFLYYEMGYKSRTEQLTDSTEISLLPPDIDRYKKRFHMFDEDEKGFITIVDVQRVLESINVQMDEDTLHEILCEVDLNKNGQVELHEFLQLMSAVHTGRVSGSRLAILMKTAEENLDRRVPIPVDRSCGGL

Structure (SMILES): CN(C)C(=N)N=C(N)N [metformin]
- Ki [1]: ~55 µM
- Ki [2]: ~38 µM
